pIC50: −log10 of the molar value.
Experiments:
[1] = biological target: recombinant, human CRBN-DDB1 and BRD4 (Homo sapiens, UniProt O60885+Q96SW2); test: CRBN-DDB1/BRD4 dimerization (proximity) AlphaScreen assay; format: biochemical; conditions: co-incubation with 111 nM dBET1, competitor 1 μM, stereo-specific
[2] = system: MV4-11 cell proliferation; test: MV4-11 cell proliferation (ATP content); format: cell-based; conditions: Homo sapiens, MV4-11, 24 h, read-out: IC50, MV4-11 cell proliferation (ATP content)
[3] = system: MV4-11 cells; test: Apoptosis in MV4-11 cells (Caspase-GLO, PARP and Caspase-3 cleavage, Annexin V); format: cell-based, human; conditions: MV4-11, 4 or 8 hours then drug washout, assessed at 24 hours
[4] = system: PIM1; test: Expression proteomics in MV4-11 cells; conditions: 250 nM, 2 hours

SMILES | competition of dBET1 induced proximity [1] | pIC50 [2] | apoptotic response after pulsed treatment [3] | PIM1 protein abundance [4]
Cc1sc2c(c1C)C(c1ccc(Cl)cc1)=N[C@@H](CC(=O)OC(C)(C)C)c1nnc(C)n1-2 [JQ1] | Inhibition of chemical adaptor function was accomplished | 5.96 | did not yield a pronounced apoptotic response | downregulated
O=C1CCC(N2C(=O)c3ccccc3C2=O)C(=O)N1 (centres unmarked) [thalidomide] | Inhibition of chemical adaptor function was accomplished | – | – | –

Source: US9694084B2, “Methods to induce targeted protein degradation through bifunctional molecules” (Dana-Farber Cancer Institute, Inc., priority 2014, dated 2017)
